Assay results taken from patent US10195156B2, “Compounds and compositions for intracellular delivery of agents” (ModernaTX, Inc., priority 2015, dated 2019).
Blank lines part the entries; values can stand above or below the compound they belong to.

Tests used:
[1] = Particle size and polydispersity index of nanoparticle compositions (Zetasizer Nano ZS); type: physicochemical; settings: for particle size, rank within the named table (in words): comparison amongst compositions
Description: A Zetasizer Nano ZS (Malvern Instruments Ltd, Malvern, Worcestershire, UK) can be used to determine the particle size, the polydispersity index (PDI) and the zeta potential of the nanoparticle compositions in 1×PBS in determining particle size and 15 mM PBS in determining zeta potential.

[2] = Encapsulation efficiency of RNA (QUANT-IT RIBOGREEN RNA assay); type: physicochemical; settings: for encapsulation efficiency, rank within the named table (in words): comparison amongst compositions
Description: For nanoparticle compositions including an RNA, a QUANT-IT™ RIBOGREEN® RNA assay (Invitrogen Corporation Carlsbad, Calif.) can be used to evaluate the encapsulation of an RNA by the nanoparticle composition. The samples are diluted to a concentration of approximately 5 μg/mL in a TE buffer solution (10 mM Tris-HCl, 1 mM EDTA, pH 7.5). 50 μL of the diluted samples are transferred to a polystyrene 96 well plate and either 50 μL of TE buffer or 50 μL of a 2% Triton X-100 solution is added to the wells. The plate is incubated at a temperature of 37° C. for 15 minutes. The RIBOGREEN® reagent is diluted 1:100 in TE buffer, and 100 μL of this solution is added to each well. The fluorescence intensity can be measured using a fluorescence plate reader (Wallac Victor 1420 Multilablel Counter; Perkin Elmer, Waltham, Mass.) at an excitation wavelength of, for example, about 480 nm and an emission wavelength of, for example, about 520 nm. The fluorescence values of the reagent blank are subtracted from that of each of the samples and the percentage of free RNA is determined by dividing the fluorescence intensity of the intact sample (without addition of Triton X-100) by the fluorescence value of the disrupted sample (caused by the addition of Triton X-100).

[3] = pKa of nanoparticle compositions; type: physicochemical
[4] = test system: luciferase (Luc) mRNA expression; assay: Expression of Luc induced by sample formulations, whole-body bioluminescence after intravenous administration; type: in vivo; settings: mice, i.v., 0.5 mg/kg; for total flux / Luc expression, rank within the named table (in words): each time point
Description: In order to monitor how effectively various nanoparticle compositions deliver therapeutic and/or prophylactic agents to targeted cells, different nanoparticle compositions including a particular therapeutic and/or prophylactic agent (for example, a modified or naturally occurring RNA such as an mRNA) are prepared and administered to rodent populations. Mice are intravenously, intramuscularly, intraarterially, or intratumorally administered a single dose including a nanoparticle composition with a formulation such as those provided in Table 1. In some instances, mice may be made to inhale doses. Dose sizes may range from 0.001 mg/kg to 10 mg/kg, where 10 mg/kg describes a dose including 10 mg of a therapeutic and/or prophylactic agent in a nanoparticle composition for each 1 kg of body mass of the mouse. A control composition including PBS may also be employed.
Upon administration of nanoparticle compositions to mice, dose delivery profiles, dose responses, and toxicity of particular formulations and doses thereof can be measured by enzyme-linked immunosorbent assays (ELISA), bioluminescent imaging, or other methods. For nanoparticle compositions including mRNA, time courses of protein expression can also be evaluated. Samples collected from the rodents for evaluation may include blood, sera, and tissue (for example, muscle tissue from the site of an intramuscular injection and internal tissue); sample collection may involve sacrifice of the animals.
The efficacy of the nanoparticle compositions presented in Tables 1, 1a, 17-1, 19-1, 20-1 and 21-1 was evaluated with a bioluminescence study. Formulations were administered intravenously to mice (n=6) at a dosage of 0.5 mg/kg (mpk) and bioluminescence measured at 3, 6, and 24 hour time points. The standard MC3 formulation and a PBS control were evaluated for comparison.

[5] = test system: modified luciferase expression; assay: Expression of Luc in different organs (liver, lung, spleen, femur) 6 hours after intravenous administration; type: in vivo; settings: i.v., 0.5 mpk
Description: The efficacy of the nanoparticle compositions presented in Tables 1, 1a, 17-1, 19-1, 20-1 and 21-1 was further evaluated by measuring the expression of modified luciferase in the liver, lung, spleen, and femur upon administration of a given composition. Formulations were administered intravenously to mice (n=3) at a dosage of 0.5 mpk and bioluminescence measured after 6 hours. The standard MC3 formulation and a PBS control were also tested.

[6] = Table 1, rows without footnote mark (lipid:DOPE:cholesterol:PEG-DMG 40:20:38.5:1.5, Luc mRNA; MC3 standard formulation)
[7] = Table 1, rows without footnote mark
[8] = Table 20-1, rows without footnote mark
[9] = Table 1, * lipid:DSPC:Chol:PEG-DMG 50:10:38.5:1.5

PDI ([1]; Table 19-1): 0.239
Size (nm) ([1]; Table 19-1): 72.0 nm
EE (%) ([2]; Table 19-1): 98.8%
pKa ([3]; Table 19-1): 7.32
SMILES: CCCCCCCCCCCCN(CCCCCCCCCCCC)CCN1CCNCC1 [Compound 19-2, N-Dodecyl-N-(2-(piperazin-1-yl)ethyl)dodecan-1-amine]
Total Flux 3 hours ([4]; Table 19-2): 1.96E+05
Total Flux 6 hours ([4]; Table 19-2): 3.51E+05
Total Flux 24 hours ([4]; Table 19-2): 2.29E+05
total flux / Luc expression, rank within the named table (in words) [4]: lowest total flux
Total Flux Liver ([5]; Table 19-3, mice, liver): 5.73E+04
Total Flux Lung ([5]; Table 19-3, mice): 2.33E+04
Total Flux Spleen ([5]; Table 19-3, mice): 3.56E+04
total flux in the liver, rank within the named table (in words) ([5]; mice, liver): lowest total flux in the liver

Size (nm) [1, 6]: 94.2 nm
EE (%) [2, 7]: 97.6%
pKa [3, 7]: 6.25
SMILES: CCCCCCCC/C=C\CCCCCCCCN(CCCCCCCC/C=C\CCCCCCCC)CCN(CCCCCCCC/C=C\CCCCCCCC)CCN1CCN(CCN(CCCCCCCC/C=C\CCCCCCCC)CCCCCCCC/C=C\CCCCCCCC)CC1 [Formula IV, N^1-(2-(4-(2-(Di((Z)-octadec-9-en-1-yl)amino)ethyl)piperazin-1-yl)ethyl)-N^1,N^2,N^2-tri((Z)-octadec-9-en-1-yl)ethane-1,2-diamine]
Total Flux Liver ([5]; Table 3, mice, liver): 9.15E+08
Total Flux Spleen ([5]; Table 3, mice): 6.15E+08

PDI ([1]; Table 21-1): 0.200
Size (nm) ([1]; Table 21-1): 83.0 nm
particle size, rank within the named table (in words) [1]: smallest particles
EE (%) ([2]; Table 21-1): 99.4%
pKa ([3]; Table 21-1): 6.98
SMILES: CCCCC/C=C\C/C=C\CCCCCCCCC1(CCCCCCCC/C=C\C/C=C\CCCCC)CC(OC(=O)CCCN(C)C)C1 [Compound 21-2, 3,3-Di((9Z,12Z)-octadeca-9,12-dien-1-yl)cyclobutyl 4-(dimethylamino)butanoate]
Total Flux 3 hours ([4]; Table 21-2): 5.99E+08
Total Flux 6 hours ([4]; Table 21-2): 8.09E+08
Total Flux 24 hours ([4]; Table 21-2): 8.09E+08
total flux / Luc expression, rank within the named table (in words) [4]: least expression at 3 and 6 hours
Total Flux Liver ([5]; Table 21-3, mice, liver): 5.50E+07
Total Flux Lung ([5]; Table 21-3, mice): 2.53E+05
Total Flux Spleen ([5]; Table 21-3, mice): 1.56E+07
total flux in organs, rank or organ comparison (in words) ([5]; mice, each organ or overall): lowest expression in each organ

PDI [1, 8]: 0.159
Size (nm) [1, 8]: 86.8 nm
EE (%) [2, 8]: 95.2%
pKa [3, 8]: 6.41
SMILES: CCCCCCCCCCCCN(CCO)CCN(CCCCCCCCCCCC)CCCCCCCCCCCC [Compound 20-20, 2-((2-(Didodecylamino)ethyl)(dodecyl)amino)ethan-1-ol]
Total Flux 3 hours ([4]; Table 20-2): 4.56E+09
Total Flux 6 hours ([4]; Table 20-2): 3.27E+09
Total Flux 24 hours ([4]; Table 20-2): 3.56E+08
Total Flux Liver ([5]; Table 20-3, mice, liver): 8.92E+08
Total Flux Lung ([5]; Table 20-3, mice): 1.12E+06
Total Flux Spleen ([5]; Table 20-3, mice): 1.39E+07

Size (nm) ([1]; Table 1, * formulated with lipid:DSPC:Chol:PEG-DMG 50:10:38.5:1.5): 110.4 nm
PDI [1, 9]: 0.131
EE (%) [2, 9]: 36.4%
encapsulation efficiency, rank within the named table (in words) [2]: lowest
pKa [3, 9]: 6.01
SMILES: CCCCC/C=C\CCCCCN(CCCCCCCCCCCC)CCN1CCN(CCN(CCCCCCCCCCCC)CCN(CCCCCCCCCCCC)CCCCCCCCCCCC)CC1 [Compound 24, (Z)—N^1-(2-(4-(2-(Dodec-6-en-1-yl(dodecyl)amino)ethyl)piperazin-1-yl)ethyl)-N^1,N^2,N^2-tridodecylethane-1,2-diamine]

Size (nm) [1, 6]: 203.2 nm
particle size, rank within the named table (in words) [1]: largest particles
EE (%) [2, 7]: 46.2%
encapsulation efficiency, rank within the named table (in words) [2]: lowest
pKa [3, 7]: 5.95
SMILES: CCCCCCCCCCCCN(CCCCCCCCCCCC)CCN1CCN(CCN(CCCCCCCCCCCC)C(=O)CN(CCCCCCCCCCCC)CCCCCCCCCCCC)CC1 [Compound 1, 2-(Didodecylamino)-N-(2-(4-(2-(didodecylamino)ethyl)piperazin-1-yl)ethyl)-N-dodecylacetamide]
